Where two headings read alike, the source gives them in different places. Marks after values point to notes of the source that are not given here. One block for each compound: values may come before it.
Key:
[1] = cited from earlier work
[2] = Phase 1 drug-interaction study, prednisone with isavuconazole: pharmacokinetics
[3] = Phase 1 drug-interaction study, sirolimus with isavuconazole: pharmacokinetics; type: in vivo, human (healthy subjects)
[4] = type: in vivo, human (healthy subjects)
[5] = Phase 1 drug-interaction study, tacrolimus with isavuconazole: pharmacokinetics; type: in vivo, human (healthy subjects)
[6] = Treatment-emergent adverse events, cyclosporine study; type: in vivo, human (healthy subjects); conditions: TEAE during isavuconazole‐only administration
CYP3A4 = conditions: human liver microsomes expressing CYP3A4 in vitro; ref data on file; cited from earlier work
[7] = both, human, in vivo, po, 20 mg
[8] = prednisolone after prednisone 20 mg single oral dose
[9] = prednisone + isavuconazole vs prednisone alone
[10] = both, human, whole blood, po, 2 mg
[11] = sirolimus 2 mg single oral dose
[12] = both, human, plasma, oral, 200 mg
[13] = isavuconazole + MMF vs isavuconazole alone
[14] = isavuconazole + sirolimus vs isavuconazole alone
[15] = isavuconazole + tacrolimus vs isavuconazole alone
[16] = isavuconazole + cyclosporine vs isavuconazole alone
[17] = MPAG after MMF 1 g single oral dose
[18] = both, human, whole blood, po, 5 mg
[19] = tacrolimus 5 mg single oral dose
[20] = tacrolimus + isavuconazole vs tacrolimus alone
[21] = MMF + isavuconazole vs MMF alone
[22] = MPA after MMF 1 g single oral dose

Structure (SMILES): C[C@@H](c1ncncc1F)[C@](O)(Cn1cncn1)c1ccc(F)cc1F [Voriconazole, voriconazole]
Fold increase in area under the plasma concentration‐time curve of cyclosporine ([1]; cyclosporine coadministered with voriconazole): ↑ 1.7 ^a ^,7 fold
Fold increase in area under the plasma concentration‐time curve of sirolimus ([1]; sirolimus coadministered with voriconazole): ↑ 11 ^a ^,7 fold
Fold increase in area under the plasma concentration‐time curve of tacrolimus ([1]; tacrolimus coadministered with voriconazole): ↑ 3 ^a ^,7 fold
effect of coadministration on MPA AUC ([1]; voriconazole coadministration, ref VFEND package insert): no significant effect

Structure (SMILES): CC[C@@H]([C@H](C)O)n1ncn(-c2ccc(N3CCN(c4ccc(OC[C@@H]5CO[C@@](Cn6cncn6)(c6ccc(F)cc6F)C5)cc4)CC3)cc2)c1=O [Posaconazole, posaconazole]
Fold increase in area under the plasma concentration‐time curve of sirolimus ([1]; sirolimus coadministered with posaconazole): ↑ 7.9 ^a ^,14 fold
Fold increase in area under the plasma concentration‐time curve of tacrolimus ([1]; tacrolimus coadministered with posaconazole): ↑ 3.6 ^a ^,14 fold

Structure (SMILES): C[C@@H](c1nc(-c2ccc(C#N)cc2)cs1)[C@](O)(Cn1cncn1)c1cc(F)ccc1F [Isavuconazole, isavuconazole]
AUCτ ([4]; MMF study, isavuconazole 200 mg QD alone, plasma, n = 22, arithmetic mean (SD)): 101.4 (37.6) μg·h/mL
Cmax [4, 12]: 6500 ng/mL
change of mean AUCτ of isavuconazole by coadministration with MMF ([4]; in vivo): unchanged
mean Cmax of isavuconazole increased by coadministration with MMF ([4]; in vivo): 4%
AUCτ, Geometric Least‐Squares Mean, % (90%CI) [4, 13]: 101 (98, 103) %
Cmax, Geometric Least‐Squares Mean, % (90%CI) [4, 13]: 104 (100, 107) %
AUC [3, 12]: 92000 ng·h/mL
Tmax [3, 12]: 2 h
mean AUCτ of isavuconazole higher in the presence of sirolimus ([3]; in vivo): 11%
mean Cmax of isavuconazole higher in the presence of sirolimus ([3]; in vivo): 4%
AUCτ, Geometric Least‐Squares Mean, % (90%CI) [3, 14]: 111 (109, 114) %
Cmax, Geometric Least‐Squares Mean, % (90%CI) [3, 14]: 104 (100, 108) %
AUC [5, 12]: 89800 ng·h/mL
Cmax [5, 12]: 4900 ng/mL
mean AUCτ of isavuconazole higher in the presence of tacrolimus ([5]; in vivo): 12%
mean Cmax of isavuconazole higher in the presence of tacrolimus ([5]; in vivo): 26%
AUCτ, Geometric Least‐Squares Mean, % (90%CI) [5, 15]: 112 (110, 115) %
Cmax, Geometric Least‐Squares Mean, % (90%CI) [5, 15]: 126 (118, 134) %
blood creatinine ([6]; 1 subject, day 15, 0.9 mg/dL on day –1): 1.4 mg/dL
blood creatinine ([6]; second subject, by day 14, baseline 1.3 mg/dL): 1.4 mg/dL
isavuconazole metabolized (CYP3A4): 66.2%
AUC ([2]; both, human, in vivo, 200 mg): 88200 ng·h/mL
Cmax ([2]; both, human, in vivo, 200 mg): 5600 ng/mL
Tmax ([2]; both, human, in vivo, 200 mg): 2 h
AUC (both, human, in vivo, 200 mg): 108000 ng·h/mL
Cmax (both, human, in vivo, 200 mg): 5700 ng/mL
AUCτ, Geometric Least‐Squares Mean, % (90%CI) [16]: 103 (100, 106) %
Cmax, Geometric Least‐Squares Mean, % (90%CI) [16]: 130 (121, 139) %

Structure (SMILES): COc1c(C)c2c(c(O[C@@H]3O[C@H](C(=O)O)[C@@H](O)[C@H](O)[C@H]3O)c1C/C=C(\C)CCC(=O)O)C(=O)OC2 [MPAG, mycophenolic acid phenyl glucuronide]
AUC0–∞ lower in the presence vs absence of isavuconazole [4, 17]: 24%
AUClast lower in the presence vs absence of isavuconazole [4, 17]: 27%
Cmax lower in the presence vs absence of isavuconazole [4, 17]: 32%

Structure (SMILES): CCC(C)n1ncn(-c2ccc(N3CCN(c4ccc(OCC5COC(Cn6cncn6)(c6ccc(Cl)cc6Cl)O5)cc4)CC3)cc2)c1=O (stereo not drawn) [Itraconazole, itraconazole]
Fold increase in trough concentrations of cyclosporine ([1]; cyclosporine coadministered with itraconazole): ↑ 2.7 ^b ^,13 fold
Fold increase in trough concentrations of tacrolimus ([1]; tacrolimus coadministered with itraconazole): ↑ 5.6 ^b ^,13 fold

Results, then the compound that gave them:

AUC(0-inf) [2, 7]: 1650 ng·h/mL
AUC(0-t) [2, 7]: 1640 ng·h/mL
Cmax [2, 7]: 295 ng/mL
Tmax [2, 7]: 1.5 h
half-life [2, 7]: 2.9 h
Cmax lower in the presence vs absence of isavuconazole [2, 8]: 4%
Mean AUC0–∞ higher in the presence vs absence of isavuconazole [2, 8]: 8%
Mean AUClast higher in the presence vs absence of isavuconazole [2, 8]: 8%
AUC0–∞, Geometric Least‐Squares Mean Ratio, % (90%CI) [2, 9]: 108 (102, 114) %
AUClast, Geometric Least‐Squares Mean Ratio, % (90%CI) [2, 9]: 108 (102, 114) %
Cmax, Geometric Least‐Squares Mean Ratio, % (90%CI) [2, 9]: 96 (90, 102) %
Structure (SMILES): C[C@]12C=CC(=O)C=C1CC[C@@H]1[C@@H]2[C@@H](O)C[C@@]2(C)[C@H]1CC[C@]2(O)C(=O)CO [Prednisolone, prednisolone]

AUC(0-inf) [3, 10]: 196 ng·h/mL
AUC(0-t) [3, 10]: 152 ng·h/mL
Cmax [3, 10]: 5.1 ng/mL
half-life [3, 10]: 74.8 h
Mean AUC0–∞ higher in the presence vs absence of isavuconazole [3, 11]: 84%
Mean AUClast higher in the presence vs absence of isavuconazole [3, 11]: 108%
Mean Cmax higher in the presence vs absence of isavuconazole [3, 11]: 65%
Structure (SMILES): CO[C@H]1C[C@@H]2CC[C@@H](C)[C@@](O)(O2)C(=O)C(=O)N2CCCC[C@H]2C(=O)O[C@H]([C@H](C)C[C@@H]2CC[C@@H](O)[C@H](OC)C2)CC(=O)[C@H](C)/C=C(\C)[C@@H](O)[C@@H](OC)C(=O)[C@H](C)C[C@H](C)/C=C/C=C/C=C/1C [Sirolimus, sirolimus]

AUC(0-inf) [5, 18]: 313 ng·h/mL
AUC(0-t) [5, 18]: 304 ng·h/mL
Cmax [5, 18]: 26.7 ng/mL
Mean AUC0–∞ higher in the presence vs absence of isavuconazole [5, 19]: 125%
Mean AUClast higher in the presence vs absence of isavuconazole [5, 19]: 127%
Mean Cmax higher in the presence vs absence of isavuconazole [5, 19]: 42%
AUC0–∞, Geometric Least‐Squares Mean Ratio, % (90%CI) [5, 20]: 225 (191, 266) %
AUClast, Geometric Least‐Squares Mean Ratio, % (90%CI) [5, 20]: 227 (192, 268) %
Cmax, Geometric Least‐Squares Mean Ratio, % (90%CI) [5, 20]: 142 (122, 164) %
Structure (SMILES): C=CC[C@@H]1/C=C(\C)C[C@H](C)C[C@H](OC)[C@H]2O[C@@](O)(C(=O)C(=O)N3CCCC[C@H]3C(=O)O[C@H](/C(C)=C/[C@@H]3CC[C@@H](O)[C@H](OC)C3)[C@H](C)[C@@H](O)CC1=O)[C@H](C)C[C@@H]2OC [Tacrolimus, tacrolimus]

CL/F ([4]; MMF 1 g single oral dose alone, plasma, n = 24, arithmetic mean (SD)): 11.5 (3.4) L/h
AUC0–∞, Geometric Least‐Squares Mean Ratio, % (90%CI) [4, 21]: 135 (127, 145) %
AUClast, Geometric Least‐Squares Mean Ratio, % (90%CI) [4, 21]: 132 (124, 141) %
Cmax, Geometric Least‐Squares Mean Ratio, % (90%CI) [4, 21]: 89 (76, 103) %
Cmax lower in the presence vs absence of isavuconazole [4, 22]: 11%
Mean AUC0–∞ higher in the presence vs absence of isavuconazole [4, 22]: 35%
Mean AUClast higher in the presence vs absence of isavuconazole [4, 22]: 32%
Tmax ([4]; both, human, plasma, po, 1 g): 0.5 h
half-life ([4]; both, human, plasma, po, 1 g): 12.6 h
Structure (SMILES): COc1c(C)c2c(c(O)c1C/C=C(\C)CCC(=O)O)C(=O)OC2 [Mycophenolic Acid, mycophenolic acid]
